Experimental data published in article PMC10386914 (Clinical Pharmacokinetics, 2023).

Assay: Grade ≥3 toxicity
Format: in vivo, human
Details: standard dose; study period

Cc1ccc(Nc2nccc(N(C)c3ccc4c(C)n(C)nc4c3)n2)cc1S(N)(=O)=O [Pazopanib]
patients with grade ≥3 adverse events, wildtype patients: 29%
